Patent publication US10882821B1, “Enantiomeric compound for the reduction of the deleterious activity of extended nucleotide repeat containing genes” (THE BOARD OF TRUSTEES OF THE LELAND STANFORD JUNIOR …, priority 2017, dated 2021)
pIC50: −log10 of the molar value.

Assays:
[1] = test system: mutant HTT in lymphoblastoid cells GM14044; experiment: HD lymphoblastoid cell assay to assess mutant HTT reduction; assay type: cell-based, human; details: 72 hours
Protocol: 3. HD Lymphoblastoid Cell Assay to Assess Mutant HTT Reduction
Lymphoblastoid cells GM14044, which are derived from Juvenile HD patient with around 250 CAG repeats in the mutant HTT allele, are used for lymphoblastoid cell assays. Lymphoblastoid cells are cultured as suspension cells. Right before the compound treatments, 5×10^5 cells/well are seeded into 24 well plate in 1.5 ml RPMI culture medium plus 10% fetal bovine serum. Compounds in serial dilutions are added into the well for the indicated final concentration. Cells are maintained in 37° C., 5% CO2 incubator for 72 hours
b. Compound Effect in Reducing mHTT (IC50)
The rest of the cell/medium mixture is removed from culture plate into a 1.5 ml microcentrifuge tube, then centrifuged at 2500 rpm for 2 minutes to remove the culture medium. Cell pallets are washed with 1×PBS, then stored at −80° C. until ready for Western blot analysis. Western blot analysis is performed as described above. The intensity of HTT from untreated cells is set as 100% and the IC50 of the compound is defined as the compound concentration at which the HTT protein was reduced to 50%.

[2] = brain to plasma ratio after oral dose; assay type: in vivo; details: at 1 hour following a 5 mg/kg oral dose in rats
[3] = biological target: T1, interaction between Supt4h and NGN (subunit of Supt5h) (Homo sapiens, UniProt P63272); experiment: split Gaussia luciferase complementation assay (M2-8 cells); assay type: cell-based; details: for pIC50: M2-8 cells, 24 hr treatment
T1 construct: expressed in transfected cells
Protocol: 1. Slit Gaussia Luciferase Complementation Assay […]
i pNBR-X1-Supt4-Gluc1 and pNEBR-X1-NGN-Guc2
The HA-Supt4hand Flag-NGN fragments are amplified by PR using the plasmid pHA-Supt4h-YC and pFlag-NGN-YN and sub-cloned individually into pcDNA3.1-Gluc1 and pcDNA3.1-GIuc2 (described in “A highly sensitive protein-protein interaction assay based on Gausssia Luciferase” published at Nat Methods. 2006 December; 3(12):977-9.Epub 2006 Nov. 12). Then HA-Supt4h-Gluc1 and Flag-NGN-Gluc2 are amplified by PCR and inserted to pNEBR-X1-Hygro (New England BioLabs), which contain RheoSwitch responsive element under the control of RheoSwitch ligand. […]
ii: pNEBR-X1-Supt4h-G1-NGN-G2
PCR products containing the sequence from 5XRE to polyA in pNEBR-X1-NGN-G2 are inserted to pNEBR-X1-Supt4h-G1 at Pcil site to generate Supt4h-G1 and NGN-G2 bidirectional under their own RheoSwitch responsive element and polyA in the same plasmid. […]
b. Stable Cloned Cell Line i: 293-R1 is a cloned cell which is engineered to constitutively express RSL1 receptor/activator by transfecting HEK 293 cells with pNEBR-R1 plasmid (New England BioLabs) and selected with Blasticidin. […]
ii: M2-8 is a cloned 293-R cell which can inducibly express pNEBR-X1-Supt4h-G1-NGN-G2 by addition of RSL1. Two point mutations (M431 and M1101) are introduced to the GL1 and GL2 for better stability according to “A high-throughput cell-based Gaussia luciferase reporter assay for identifying modulators of fibulin-3 secretion” published on J Biomol Screen. 2013 July; 18(6):647-58. The cell line is selected by Hygromycin. […]
c. Cell Culture and Transfection Condition
All the HEK-293 cells and derivative cell clones are maintained in DMEM containing 10% FBS plus corresponding antibiotics (250 μg/ml hygromycin B, 10 μg/ml blasticidin or both) at 37° C., 5% CO2. d. Bioluminescence Assay in Cell Lysates
For stable cell M2-8, the cells are plated into 96 well white plate directly. 24 hours later, RheoSwitch ligand together with/without test compound is added to the cells for induction/drug treatment. After 24 hr, the cells are washed with PBS and the plate was put in −20° C. freezer for overnight. After taking out the plate from freezer, lysis buffer (30 mM Tris-HCl, pH 8.0, 5 mM NaCl, 0.1% Triton X-100) with 10 μg/ml native coelenterazine (Nanolight Technology) is immediately added to the cells. The cells are lysed at room temperature for one hour in dark. After shaking for about 1 min, the signal intensities (integrated 100 ms) from the plate were read on Tecan Infinite M200 or M1000.
The split gaussia luciferase complementation assay measures the interaction between Sup4h and NGN. NGN is the subunit of Supt5h that binds to Supt4h. […] Therefore, administration of HD143 results in decreased production of mutant proteins encoded by genes that include mutant nucleotide repeats.

mutant HTT protein = experiment: mutant HTT activity assay in induced pluripotent stem cells (Western blot); assay type: cell-based, human; details: HD patient iPSC; for effect on mutant HTT protein level in iPSC derived from a Huntington Disease patient: one day treatment, Western blot
Protocol: 3. Mutant HTT Activity Assay in Induced Pluripotent Stem Cells (iPSC)
Huntington disease patient iPSCs (ND36999 from Coriell Institute) were detached into single cells by Accutase (AT104 from Accutase) and plated on a 24-well plate coated with Matrigel (354277 from Corning). When the cells' confluency reaches about 70%, compounds are added to the cell culture medium StemMACS (130104368 from MiltenyiBiotec) and incubated with the cells for one day. Then the medium is removed and the cells are washed with PBS. After all liquid is removed, the plate is put in −80° C. for overnight. After taking out the plate from freezer, lysis buffer (30 mM Tris-HCl, pH 8.0, 5 mM NaCl, 0.1% Triton X-100) with complete proteinase inhibitor cocktail (5892791001 from Sigma-Aldrich) is immediately added to the cells. Cell samples are lysed on ice for 10 minutes. The supernatants from spinning (14 k rpm for 10 min) are collected. The protein concentrations are determined by BCA assay (Pierce, ThermoFisher). Equal amounts of protein are loaded onto 4-12% gel. After electrophoresis, the gels are transferred to nitrocellulose membranes by wet transfer at 35V for 16 hr. The protein level of mutant HTT, total HTT and tubulin are determined by immunoblotting with anti-poly Glutamine (MAB1574 from Millipore), anti-Huntingtin protein (MAB2166 from Millipore) and anti-alpha tubulin (AJ1034a from ABGENT). Blots are imaged on a Li-Cor Odyssey infrared imager. The bands intensities are determined by Li-Cor Odyssey software.
Using the protocol reported above, iPSCs were treated with HD143 at various doses for 24 hr. The cells were collected and lysed for protein quantification. Equal amounts of protein were applied on SDS-PAGE gel for Western Blotting. Mutant HTT protein was recognized by polyQ antibody (MAB1574 from Millipore) while wild type HTT protein was blotted by anti-Huntingtin antibody (MAB2166 from Millipore). Both proteins were scanned and quantified by Li-Cor Odyssey and normalized by tubulin.

[4] = test system: Gmr-Htt97Q Drosophila HD model (mutant Htt); experiment: eye morphology (rough eye) analysis in Drosophila HD model; assay type: in vivo, Drosophila melanogaster; details: Gmr-Htt97Q/+ flies, 10 or 100 μM in media
Protocol: The Drosophila melanogaster (fruit fly) HD models used in this set of experiments carry the coding sequence of human Httexon1 with 97 CAG repeats to mimic mutant Httof Huntington's disease (HD). The Gmr::Htt97Q fly, expressing mutant Htt primarily in the neurons of Drosophila compound eyes, has a severe degeneration of photoreceptor neurons and the phenotypic trait ‘rough eye’. All of the fly stocks and genetics crosses were maintained at 25° C. on standard cornmeal yeast agar media.
2. Eye Morphology (Rough Eye) Analysis
15 adult male flies (Gmr-Htt97Q/Gmr-Htt97Q or Gmr/Gmr) were crossed with 15 virgin female flies W1118(+/+) in a vial containing standard yeast agar media with testing compound (+)-HD143 in a concentration of 10 μM or 100 μM. Parent-flies were first removed from vials at day 7, followed by a collection of newly hatched flies for ‘rough eye’ analysis. The morphology of compound eyes was captured using a Leica DMR upright microscope equipped with a digital camera (CooISNAP 5.0, Photometrics). […]
FIG. 4A. The morphology of compound eye was analyzed in fruit flies treated with or without (+)-HD143. […] To quantify the appearance of “rough eye” in Gmr-Htt97Q/+ treated with 10 and 100 μM of (+)-HD143, ten flies were randomly picked from each group and the number of flies with “rough eye” phenotype were determined under microscope. […]

Brc1ccc2[nH]c3c(c2c1)CCCC3NCc1ccccc1 (racemic) [racemic HD143, N-benzyl-6-bromo-2,3,4,9-tetrahydro-1H-carbazol-1-amine]
pIC50 [1]: 7.05 | [Brain]/[Plasma] [2]: 9 at 1 hour following a 5 mg/kg oral dose in rats | pIC50 [3]: 7.52 | effect on Supt4h/NGN interaction ([3]; split Gaussia luciferase complementation assay): interrupts the interaction between Sup4h and NGN | Dose to reduce mutant HTT in HD iPSC (mutant HTT protein; 24 hr): >=60 nm | effect on mutant HTT protein level in iPSC derived from a Huntington Disease patient (mutant HTT protein): decreases mutant HTT protein

Brc1ccc2[nH]c3c(c2c1)CCC[C@@H]3NCc1ccccc1.Cl [(S)-(−)-HD143, (S)-(−)-N-Benzyl-6-bromo-2,3,4,9-tetrahydro-1H-carbazol-1-amine Hydrochloride]
pIC50 [3]: 6.05 | effect on mutant HTT protein level in iPSC derived from a Huntington Disease patient (mutant HTT protein): showed no activity

Brc1ccc2[nH]c3c(c2c1)CCC[C@H]3NCc1ccccc1 [(R)-(+)-HD143, (R)-(+)-N-benzyl-6-bromo-2,3,4,9-tetrahydro-1H-carbazol-1-amine]
effect on neuron degeneration phenotypes (rough eye) of mutant Htt in Drosophila HD models [4]: alleviates neuron degeneration phenotypes | effect on neuron degeneration phenotypes (rough eye) of mutant Htt in Drosophila HD models ([4]; listed as (+)-HD143): Alleviates Neuron Degeneration Phenotypes | pIC50 [3]: 7.82 | fold more potent than racemic HD143 ([3]; ratio of IC50 values, split Gaussia luciferase assay): 2 fold | effect on mutant HTT protein level in iPSC derived from a Huntington Disease patient (mutant HTT protein): significantly reduced mutant HTT protein level
